Source: patent US8961837B2, “Photosensitive resin composition for color filter and color filter using same” (Cheil Industries Inc., priority 2010, dated 2015)

How the values were obtained:
[1] = Spectrum transmittance / maximum absorption wavelength of the dye; type: physicochemical
Protocol: (§1) The diaminopyridine azo-based dyes (A-1) according to Examples 1 to 6 are measured regarding various properties such as solubility, maximum absorption wavelength, thermal decomposition temperature, and the like.
(§2) FIG. 1 is a graph showing the spectrum transmittance graph of the diaminopyridine azo-based dye (A-1), and FIG. 2 is a graph showing thermogravimetric analysis (TGA) results.

[2] = Thermogravimetric analysis (TGA) of the dye; type: physicochemical; conditions: temperature at which 10% of weight is decomposed (TGA)
Protocol: as §1, §2

- maximum absorption wavelength [1]: 470 nm
- thermal decomposition temperature [2]: 318 °C
Structure (SMILES): CCCCC(CC)CNCCS(=O)(=O)c1ccc(/N=N/c2c(NCC(CC)CCCC)nc(NCC(CC)CCCC)c(C#N)c2C)cc1 (centres unmarked) [A-1]
